Assay results as given in ChEMBL document CHEMBL1201862, “PubChem BioAssay data set” (2004).
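All cell lines were grown in 96-well plates and treated with compound for 48 hours. GI50 is the concentration that inhibits growth by half.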 Activity calls are given as the source filed them. No stated cut-off is given here; in the data, active = GI50 up to about 1.1 µM and inactive = higher.

Columns and labels:
Assay in all cases: growth of human tumour cells (NCI), 48 h
[1] = tested on: SNB-19
[2] = tested on: PC-3
[3] = tested on: MOLT-4
[4] = tested on: EKVX
[5] = tested on: HL-60
[6] = tested on: HOP-62
[7] = tested on: SNB-75
[8] = tested on: SF-295
[9] = tested on: COLO 205
[10] = tested on: HCC 2998
[11] = tested on: LOX IMVI
[12] = tested on: MDA-N
[13] = tested on: UACC-257
[14] = tested on: UACC-62
[15] = tested on: U-251
[16] = tested on: OVCAR-5
[17] = tested on: TK-10
[18] = tested on: HCT-15
[19] = tested on: KM-20L2
[20] = tested on: M19-MEL

Structure (SMILES)	GI50 [1]	GI50 [2]	GI50 [3]	GI50 [4]	GI50 [5]	GI50 [6]	GI50 [7]	GI50 [8]	GI50 [9]	GI50 [10]	GI50 [11]	GI50 [12]	GI50 [13]	GI50 [14]	GI50 [15]	GI50 [16]	GI50 [17]	GI50 [18]	GI50 [19]	GI50 [20]
COc1cccc(N2C(=O)CSC2c2c[nH]c3ccccc23)c1 (centres undefined)	> 100 µM (inactive)	> 100 µM (inactive)	> 100 µM (inactive)	> 100 µM (inactive)	> 100 µM (inactive)	> 100 µM (inactive)	> 100 µM (inactive)	> 100 µM (inactive)	> 100 µM (inactive)	> 100 µM (inactive)	> 100 µM (inactive)	> 100 µM (inactive)	> 100 µM (inactive)	> 100 µM (inactive)	> 100 µM (inactive)	> 100 µM (inactive)	> 100 µM (inactive)	> 100 µM		
Cc1ccc(NC(=O)CC/C(CC(=O)C(C)(C)C)=N/NC(=O)c2cc3ccccc3cc2O)cc1C	39.5 µM (inactive)		17.7 µM (inactive)	36.5 µM (inactive)	20.4 µM (inactive)	36.8 µM (inactive)		17.9 µM (inactive)	39.1 µM (inactive)	29.2 µM (inactive)	20.3 µM (inactive)		38.1 µM (inactive)	24.5 µM (inactive)	35.6 µM (inactive)	32.1 µM (inactive)		27.7 µM	34.5 µM (inactive)	39.4 µM (inactive)
